One block for each compound: values may come before it.
Legend:
MAP4K1 (HPK1) = MAP4K1 (HPK1) (Homo sapiens, UniProt Q92918); test: MAP4K1 (HPK1) kinase activity inhibition, Caliper mobility shift assay; type: biochemical; conditions: kinase 1.25 nM, ATP 10.1 μM
Protocol: 4. MAP4K1 (HPK1) Kinase Activity Inhibition Experiment: Caliper mobility shift assay was used to detect the inhibitory effect of the compound on MAP4K1 (HPK1) kinase activity. The test concentration of the compound starts at 500 nM, and is diluted 5 folds into 5 concentration points. Use a dispenser Echo 550 to transfer 250 nL 100-fold final concentration of the compound to the target plate 3573, add 10 μL of MAP4K1 (HPK1) kinase solution with a final concentration of 1.25 nM, and incubate for 10 minutes at room temperature (the negative control well contains 10 μL kinase buffer and 250 nL 100% DMSO; the positive control well contains 10 μL kinase solution and 250 nL 100% DMSO). On the kinase MAP4K1 (HPK1), add 15 μL of ATP with a final concentration of 10.1 μM and 3 μM substrate peptide No. 25 mixed solution to react for 120 minutes. Add 30 μL of stop solution containing EDTA to stop the kinase reaction. Use Caliper EZ Reader to read the conversion rate. Inhibition rate %=(Average positive control conversion rate %−Sample conversion rate %/(Average positive control conversion rate %−Average negative control conversion rate %). Among them: negative control wells represent the conversion rate readings without enzyme activity; positive control wells represent the conversion rate readings of wells without compound inhibition. Take the log value of the concentration as the X-axis, and the percentage inhibition rate on the Y-axis. Log (inhibitor) vs. response—Variable slope of analysis software GraphPad Prism 5 was used to fit the curve to obtain the IC50 value of each compound on the enzyme activity. Calculation formula: Y=Bottom+(Top−Bottom)/(1+10 ^((Log IC50−X)*HillSlope)).

[1] = molecular target: T1, Ba/F3_EGFR del19/T790M/C797S cells (Homo sapiens, UniProt P00533, T790M/C797S, cells depend on it, form not given); test: Ba/F3_EGFR (del19-T790M-C797S) cell proliferation inhibition, CTG, method 1; type: cell-based
T1 sequence (P00533 with tags, fused parts or gaps DEL746-750/T790M/C797S, form open): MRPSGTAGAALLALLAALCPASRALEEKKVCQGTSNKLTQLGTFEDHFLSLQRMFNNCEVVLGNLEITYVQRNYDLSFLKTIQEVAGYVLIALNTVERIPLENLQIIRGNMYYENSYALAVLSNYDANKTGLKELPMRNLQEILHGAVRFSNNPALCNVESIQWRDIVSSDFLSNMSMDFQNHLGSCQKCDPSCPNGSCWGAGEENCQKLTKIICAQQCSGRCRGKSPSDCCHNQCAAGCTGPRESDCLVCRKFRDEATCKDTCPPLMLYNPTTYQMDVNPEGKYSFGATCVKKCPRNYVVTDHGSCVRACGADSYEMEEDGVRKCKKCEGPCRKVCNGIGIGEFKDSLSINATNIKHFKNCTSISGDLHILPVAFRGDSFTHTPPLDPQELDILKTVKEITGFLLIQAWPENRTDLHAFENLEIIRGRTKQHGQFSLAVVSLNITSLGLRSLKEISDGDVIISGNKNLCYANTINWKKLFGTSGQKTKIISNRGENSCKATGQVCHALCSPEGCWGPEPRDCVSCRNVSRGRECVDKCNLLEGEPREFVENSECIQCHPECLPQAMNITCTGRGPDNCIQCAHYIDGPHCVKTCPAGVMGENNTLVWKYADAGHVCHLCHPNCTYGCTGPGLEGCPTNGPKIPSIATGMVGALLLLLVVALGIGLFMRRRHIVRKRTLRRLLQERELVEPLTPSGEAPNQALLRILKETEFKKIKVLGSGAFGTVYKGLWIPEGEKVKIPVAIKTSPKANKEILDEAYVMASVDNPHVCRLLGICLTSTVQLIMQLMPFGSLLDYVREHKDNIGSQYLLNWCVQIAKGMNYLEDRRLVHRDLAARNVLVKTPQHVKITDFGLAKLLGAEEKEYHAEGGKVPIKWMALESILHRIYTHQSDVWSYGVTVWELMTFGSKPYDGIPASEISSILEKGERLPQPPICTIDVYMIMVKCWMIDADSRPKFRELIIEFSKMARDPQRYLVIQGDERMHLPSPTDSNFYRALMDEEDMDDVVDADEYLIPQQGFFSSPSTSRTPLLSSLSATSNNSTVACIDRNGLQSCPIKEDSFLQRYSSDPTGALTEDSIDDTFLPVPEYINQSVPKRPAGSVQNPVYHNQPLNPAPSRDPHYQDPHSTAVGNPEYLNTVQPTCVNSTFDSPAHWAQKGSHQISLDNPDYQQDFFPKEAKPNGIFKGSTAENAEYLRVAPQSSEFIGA
Protocol: The cells were cultured in a 37° C., 5% CO2 incubator.
Cell plating and compound treatment: 1) Cells are routinely cultured until the cell saturation is 80%-90%, and when the number reaches the requirement, the cells are collected. 2) Resuspend in the corresponding fresh medium, take a small amount of cells to count, and prepare a cell suspension with a suitable density. 3) Inoculate the cell suspension into a 384-well plate at 700 cells/well, 30 μL per well. 4) Use Echo to add the compound to the corresponding cell well. The maximum starting concentration of the compound is 1-10 μM, 3 folds dilution, 8 concentrations.
CTG method detection: 1) Add 30 μL of CTG reagent (CelltiterGlo kit) to each well, and let it stand for 30 minutes at 37° C. and 5% CO2 in the dark. 2) Use Envision instrument to read the chemiluminescence signal value.
Data analysis: IC50 results are analyzed by GraphPad Prism 6 software. […] X: log value of compound concentration; Y: inhibition rate (% inhibition); inhibition rate (% inhibition)=(blank control well reading−compound well reading)/(blank control well reading−positive control reading)×100.

[2] = molecular target: T1, Ba/F3_EGFR del19/T790M/C797S cells; test: Ba/F3_EGFR (del19-T790M-C797S) cell proliferation inhibition, CTG, method 2; type: cell-based; conditions: 2000 cells/well, 72 h, read-out: Ba/F3_EGFR (del19-T790M-C797S) cell proliferation inhibition (IC50 value) Method 2
Protocol: Take a small amount of cells and count them with ViCell. 2) Adjust the cell density, inoculate the cells in a 384-well plate at 2000/well, and incubate in a 37° C., 5% CO2 incubator for 4 hours. 3) Set up the program of Tecan HP D300, add the compound to the well plate. The maximum initial concentration of the compound is 1-4 μM, 3 folds dilution, 9 concentrations, and the DMSO content in each well is unified to 0.2%.
CTG method detection: 1) Take out the CTG reagent and cell plate and equilibrate at room temperature for 30 min, add 25 μL CTG to each well, shake at medium speed for 2 min, centrifuge at 1000 rpm for 1 minutes, and stand still at room temperature for 10 minutes. 2) Envision instrument reads the chemiluminescence signal value.
Data analysis: IC50 results are analyzed by IDBS's XL-fit 5.0 software.

ALK = ALK (Homo sapiens, UniProt Q9UM73); test: ALK kinase activity inhibition, Caliper mobility shift assay, method 2; type: biochemical; conditions: ALK 1.25 nM, ATP 30 μM
ALK, sequence (Q9UM73 19-1620): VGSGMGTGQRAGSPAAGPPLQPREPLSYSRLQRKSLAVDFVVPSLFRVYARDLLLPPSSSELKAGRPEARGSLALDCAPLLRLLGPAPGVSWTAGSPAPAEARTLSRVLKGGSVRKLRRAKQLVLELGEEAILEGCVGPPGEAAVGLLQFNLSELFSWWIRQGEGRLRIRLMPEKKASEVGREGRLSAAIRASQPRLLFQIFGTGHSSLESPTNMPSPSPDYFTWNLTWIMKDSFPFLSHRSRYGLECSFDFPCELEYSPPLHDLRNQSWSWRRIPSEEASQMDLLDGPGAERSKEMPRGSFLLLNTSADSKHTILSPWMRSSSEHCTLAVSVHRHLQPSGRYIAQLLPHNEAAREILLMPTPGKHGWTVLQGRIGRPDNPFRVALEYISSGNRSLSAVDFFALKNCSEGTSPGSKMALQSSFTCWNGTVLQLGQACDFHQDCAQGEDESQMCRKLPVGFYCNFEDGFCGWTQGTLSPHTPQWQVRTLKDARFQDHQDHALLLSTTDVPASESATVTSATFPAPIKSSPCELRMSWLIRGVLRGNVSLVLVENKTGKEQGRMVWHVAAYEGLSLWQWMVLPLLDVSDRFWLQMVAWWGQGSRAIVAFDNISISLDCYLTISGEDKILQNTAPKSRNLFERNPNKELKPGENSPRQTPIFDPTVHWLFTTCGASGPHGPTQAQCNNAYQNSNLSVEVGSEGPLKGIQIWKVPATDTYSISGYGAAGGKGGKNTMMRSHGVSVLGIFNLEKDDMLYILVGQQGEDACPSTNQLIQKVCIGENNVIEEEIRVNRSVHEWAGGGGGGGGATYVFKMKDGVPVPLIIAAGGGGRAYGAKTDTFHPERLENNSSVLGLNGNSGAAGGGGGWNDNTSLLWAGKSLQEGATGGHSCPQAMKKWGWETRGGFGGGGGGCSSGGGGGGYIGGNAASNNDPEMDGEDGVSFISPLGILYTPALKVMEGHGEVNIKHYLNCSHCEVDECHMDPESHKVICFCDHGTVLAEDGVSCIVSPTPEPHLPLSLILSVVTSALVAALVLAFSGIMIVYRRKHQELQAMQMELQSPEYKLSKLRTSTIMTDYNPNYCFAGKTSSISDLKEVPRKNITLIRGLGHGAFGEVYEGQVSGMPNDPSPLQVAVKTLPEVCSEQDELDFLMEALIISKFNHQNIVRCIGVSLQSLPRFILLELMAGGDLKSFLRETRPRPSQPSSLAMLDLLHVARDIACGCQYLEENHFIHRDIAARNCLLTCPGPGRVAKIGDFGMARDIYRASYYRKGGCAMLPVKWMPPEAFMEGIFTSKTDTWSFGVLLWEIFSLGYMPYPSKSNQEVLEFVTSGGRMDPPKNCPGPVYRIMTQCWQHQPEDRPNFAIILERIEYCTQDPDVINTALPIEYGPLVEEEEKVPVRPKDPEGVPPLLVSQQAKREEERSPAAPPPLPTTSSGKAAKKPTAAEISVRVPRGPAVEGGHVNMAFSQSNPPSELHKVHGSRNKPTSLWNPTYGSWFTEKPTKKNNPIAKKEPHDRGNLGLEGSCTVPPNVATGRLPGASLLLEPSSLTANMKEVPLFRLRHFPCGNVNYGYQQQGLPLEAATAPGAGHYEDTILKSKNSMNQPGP
Protocol: 2. ALK Kinase Activity Inhibition Experiment:
Method 2: Caliper mobility shift assay was used to measure ALK protein kinase activity. The method is basically the same as method 1, with individual parameters adjusted. The initial concentration of the compound is 1 mM, and sequentially diluted 4-fold to make 6 points (7 points for some individual compounds). Use a dispenser Echo 550 to transfer 250 nL of 100-fold final concentration of the compound to the target plate 3573, add 10 μL ALK with final concentration of 1.25 nM, incubate at room temperature for 10 minutes (the negative control well contains 10 μL kinase buffer and 250 nL 100% DMSO; the positive control well contains 10 μL kinase solution and 250 nL 100% DMSO). On the kinase ALK, add 15 μL of ATP with a final concentration of 30 μM and 3 μM of the substrate peptide No. 22 mixed solution to react for 25 minutes; add 30 μL of stop detection solution containing EDTA to stop the kinase reaction. Use Caliper EZ Reader to read the conversion rate. Inhibition rate %=(Average positive control conversion rate %−Sample conversion rate %/(Average positive control conversion rate %−Average negative control conversion rate %). Among them: negative control wells represent the conversion rate readings without enzyme activity; positive control wells represent the conversion rate readings of wells without compound inhibition. Take the log value of the concentration as the X-axis, and the percentage inhibition rate on the Y-axis. Log (inhibitor) vs. response—Variable slope of analysis software GraphPad Prism 5 was used to fit the curve to obtain the IC50 value of each compound on the enzyme activity. Calculation formula: Y=Bottom+(Top−Bottom)/(1+10^((Log IC50−X)*HillSlope)).

EGFR (T790M/L858R/C797S) = EGFR (T790M/L858R/C797S) (Homo sapiens, UniProt P00533, C797S/L858R/T790M); test: EGFR (T790M/L858R/C797S) kinase activity inhibition, Caliper mobility shift assay; type: biochemical; conditions: kinase 2.5 nM, ATP 40 μM
EGFR (T790M/L858R/C797S), sequence (P00533 25-1210 T790M/C797S/L858R): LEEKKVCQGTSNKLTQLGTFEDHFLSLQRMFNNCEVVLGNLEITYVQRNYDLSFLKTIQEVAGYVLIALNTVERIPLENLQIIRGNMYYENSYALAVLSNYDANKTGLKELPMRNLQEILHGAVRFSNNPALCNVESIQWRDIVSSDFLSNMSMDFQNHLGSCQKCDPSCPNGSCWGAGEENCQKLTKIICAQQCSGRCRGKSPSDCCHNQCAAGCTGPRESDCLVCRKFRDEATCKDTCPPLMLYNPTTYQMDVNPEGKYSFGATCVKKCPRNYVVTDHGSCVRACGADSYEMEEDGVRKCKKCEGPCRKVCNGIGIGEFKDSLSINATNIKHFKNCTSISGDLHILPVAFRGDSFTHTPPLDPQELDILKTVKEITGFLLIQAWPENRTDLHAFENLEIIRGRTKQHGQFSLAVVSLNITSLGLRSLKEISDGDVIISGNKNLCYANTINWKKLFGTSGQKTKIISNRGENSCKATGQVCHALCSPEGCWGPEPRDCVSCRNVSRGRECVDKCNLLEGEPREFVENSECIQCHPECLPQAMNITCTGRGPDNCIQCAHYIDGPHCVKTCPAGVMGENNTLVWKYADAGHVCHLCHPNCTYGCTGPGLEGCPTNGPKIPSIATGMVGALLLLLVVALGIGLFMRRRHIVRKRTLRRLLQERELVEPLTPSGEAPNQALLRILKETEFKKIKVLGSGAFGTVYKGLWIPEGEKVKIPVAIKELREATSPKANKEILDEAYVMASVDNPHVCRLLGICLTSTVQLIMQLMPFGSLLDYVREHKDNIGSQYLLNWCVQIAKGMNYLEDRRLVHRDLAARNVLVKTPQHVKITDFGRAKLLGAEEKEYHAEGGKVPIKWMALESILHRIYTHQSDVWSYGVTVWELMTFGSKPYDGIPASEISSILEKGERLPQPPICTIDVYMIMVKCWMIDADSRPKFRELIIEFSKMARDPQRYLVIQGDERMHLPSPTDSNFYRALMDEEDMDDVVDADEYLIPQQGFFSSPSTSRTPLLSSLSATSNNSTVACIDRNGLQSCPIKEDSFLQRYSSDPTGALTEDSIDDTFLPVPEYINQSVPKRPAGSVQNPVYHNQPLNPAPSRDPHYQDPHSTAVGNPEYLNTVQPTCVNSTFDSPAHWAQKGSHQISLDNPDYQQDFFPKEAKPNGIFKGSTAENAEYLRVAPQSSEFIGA
Protocol: The basic method is the same as ALK activity test method 2. The test concentration of the compound starts at 2 μM, and is diluted 5 folds into 6 (7 for individual compounds) concentration points. […] Add 30 μL of stop solution containing EDTA to stop the kinase reaction. Use Caliper EZ Reader to read the conversion rate. Inhibition rate %=(Average positive control conversion rate %−Sample conversion rate %/(Average positive control conversion rate %−Average negative control conversion rate %). Among them: negative control wells represent the conversion rate readings without enzyme activity; positive control wells represent the conversion rate readings of wells without compound inhibition. Take the log value of the concentration as the X-axis, and the percentage inhibition rate on the Y-axis. Log (inhibitor) vs. response—Variable slope of analysis software GraphPad Prism 5 was used to fit the curve to obtain the IC50 value of each compound on the enzyme activity. Calculation formula: Y=Bottom+(Top−Bottom)/(1+10^((Log IC50−X)*HillSlope)).

[3] = Pharmacokinetic study in rats after intragastrical administration; type: in vivo; conditions: male, rat, plasma, po, SD rats, 3 mg/kg; for AUC(0-t): read-out: AUC0-24 h
Protocol: Example 55: Pharmacokinetic Study in Rats
Instruments: XEVO TQ-S LC/MS instrument produced by Waters. All measurement data is collected and processed by Masslynx V4.1 software, and the data is calculated and processed by Microsoft Excel. Using WinNonLin 8.0 software, the statistical moment method was used to calculate the pharmacokinetic parameters. Mainly include kinetic parameters Tmax, T1/2, Cmax, AUClast etc. […] Injection volume: 5 μL.
Animals: 3 male SD rats with a weight range of 200-220 g. After purchase, they will be kept in the laboratory of the Experimental Animal Center for 2 days and then used. They will be fasted for 12 hours predose and 4 hours after dosing. Drinking water is free during the test. After the rats were gavage, blood samples were taken according to the established time point.
Solvent: 0.5% Methylcellulose (aqueous solution containing 0.4% Tween 80 and 1% ethanol). Preparation of the solution for intragastrical administration: accurately weigh the compound, add it to the solvent, and ultrasonically at room temperature for 5 minutes to completely dissolve the drug, and prepare a 0.3 mg/ml medicinal solution.
Pharmaceutical samples: representative compounds of the structure shown in the patented formula (I) of the present invention, generally, multiple samples with similar structures (with a molecular weight difference of more than 2 units) are taken, accurately weighed, and administered together (cassette PK). In this way, multiple compounds can be screened at the same time and their oral absorption rates can be compared. A single administration was also used to study the pharmacokinetics of the drug sample in rats.
After intragastrical administration, blood was taken from the orbit at 0.25, 0.5, 1, 2, 4, 9, 12 and 24 hours, and placed in a plastic centrifuge tube pretreated with sodium heparin. After centrifugation, the supernatant plasma was used for LC-MS/MS analysis.
Accurately weigh the compounds to prepare different concentrations, perform quantitative analysis on mass spectrometry to establish a standard curve, and then test the concentration of the above-mentioned compound in the plasma to obtain the compound concentration at different time points. All measurement data are collected and processed by relevant software, and the statistical moment method is used to calculate the pharmacokinetic parameters (mainly including kinetic parameters Tmax, T1/2, Cmax, AUClast etc). The results are as follows:
Table 7: Pharmacokinetic Parameters of the Compounds after Intragastrical Administration in SD Rats

[4] = 700 cells/well, 72 h, read-out: Ba/F3_EGFR (del19-T790M-C797S) cell proliferation inhibition (IC50 value) Method 1

MAP4K1 (HPK1), sequence (Q92918 whole entry): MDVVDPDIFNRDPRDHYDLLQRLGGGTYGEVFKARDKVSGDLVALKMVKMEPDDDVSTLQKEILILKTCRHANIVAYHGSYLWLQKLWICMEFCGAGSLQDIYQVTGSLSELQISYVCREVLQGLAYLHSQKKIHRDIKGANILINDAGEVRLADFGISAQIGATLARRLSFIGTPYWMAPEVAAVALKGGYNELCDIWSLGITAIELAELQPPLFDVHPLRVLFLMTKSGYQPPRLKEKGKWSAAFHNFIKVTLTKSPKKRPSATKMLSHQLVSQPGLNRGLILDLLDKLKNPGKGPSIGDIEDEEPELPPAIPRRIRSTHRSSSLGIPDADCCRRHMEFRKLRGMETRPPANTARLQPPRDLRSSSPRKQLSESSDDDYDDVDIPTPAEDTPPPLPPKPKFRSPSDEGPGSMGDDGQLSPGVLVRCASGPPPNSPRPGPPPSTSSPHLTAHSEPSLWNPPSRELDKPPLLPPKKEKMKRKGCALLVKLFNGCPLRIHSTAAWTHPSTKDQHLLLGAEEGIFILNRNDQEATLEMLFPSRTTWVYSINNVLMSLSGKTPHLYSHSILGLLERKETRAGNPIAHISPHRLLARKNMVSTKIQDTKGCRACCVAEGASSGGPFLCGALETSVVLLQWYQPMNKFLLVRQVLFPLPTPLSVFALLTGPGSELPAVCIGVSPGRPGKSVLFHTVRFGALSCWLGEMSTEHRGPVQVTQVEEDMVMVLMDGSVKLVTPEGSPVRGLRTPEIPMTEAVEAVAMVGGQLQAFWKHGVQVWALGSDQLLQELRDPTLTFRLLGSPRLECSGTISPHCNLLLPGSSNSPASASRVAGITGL

Structure (SMILES): COc1cc(N2CCC(N3CCN(C)CC3)CC2)ccc1Nc1ncc(Cl)c(Nc2ccccc2P(C)(C)=O)n1 [Brigatinib, reference compound]
IC50 (MAP4K1 (HPK1)): 10 to 100 nM
GI50 ([1]; read-out: Ba/F3_EGFR (del19-T790M-C797S) cell proliferation inhibition (IC50 value) Method 1, 700 cells/well, 72 h): 100 to 200 nM
GI50 [2]: > 200 nM

Structure (SMILES): Cc1cc(Nc2ncc(Cl)c(Nc3ccccc3P(C)(C)=O)n2)cc2c1N1CCN(C)C[C@@H]1CO2 [Compound 25R]
IC50 (ALK): 1 to 50 nM
IC50 (EGFR (T790M/L858R/C797S)): < 3 nM
IC50 (MAP4K1 (HPK1)): ≤ 1 nM
GI50 [1, 4]: < 20 nM
Cmax [3]: 61.4 ng/mL
Tmax [3]: 6.33 h
half-life [3]: 405 min
AUC(0-t) [3]: 585 ng·h/mL

Structure (SMILES): CN1CCC(N2CCN3c4c(F)cc(Nc5ncc(Cl)c(Nc6ccccc6P(C)(C)=O)n5)cc4OC[C@@H]3C2)CC1 [Compound 35S]
IC50 (EGFR (T790M/L858R/C797S)): < 3 nM
IC50 (MAP4K1 (HPK1)): ≤ 1 nM
GI50 [2]: 20 to 100 nM
Cmax [3]: 15 ng/mL
Tmax [3]: 4.33 h
half-life [3]: 238 min
AUC(0-t) [3]: 179 ng·h/mL

Structure (SMILES): Cc1cc(Nc2ncc(Cl)c(Nc3ccccc3P(C)(C)=O)n2)cc2c1N1CCN(C3CCN(C4CC4)CC3)C[C@@H]1CO2 [Compound 33R]
IC50 (EGFR (T790M/L858R/C797S)): < 3 nM
IC50 (MAP4K1 (HPK1)): ≤ 1 nM
GI50 [2]: 20 to 100 nM
Cmax [3]: 120 ng/mL
Tmax [3]: 7.33 h
half-life [3]: 233 min
AUC(0-t) [3]: 1780 ng·h/mL

Structure (SMILES): CCN1CCC(N2CCN3c4c(C)cc(Nc5ncc(Cl)c(Nc6ccccc6P(C)(C)=O)n5)cc4OC[C@H]3C2)CC1 [Compound 30R]
IC50 (ALK): 1 to 50 nM
IC50 (EGFR (T790M/L858R/C797S)): < 3 nM
IC50 (MAP4K1 (HPK1)): ≤ 1 nM
GI50 [2]: 20 to 100 nM

Structure (SMILES): Cc1cc(Nc2ncc(Cl)c(Nc3ccccc3P(C)(C)=O)n2)cc2c1N1CCN(C3CCOCC3)C[C@H]1CO2 [Compound 31S]
IC50 (EGFR (T790M/L858R/C797S)): < 3 nM
IC50 (MAP4K1 (HPK1)): ≤ 1 nM
GI50 [2]: 20 to 100 nM
Cmax [3]: 160 ng/mL
Tmax [3]: 1 h
half-life [3]: 376 min
AUC(0-t) [3]: 1350 ng·h/mL

The next lines start with the values.

IC50 (ALK): 1 to 50 nM
IC50 (EGFR (T790M/L858R/C797S)): < 3 nM
IC50 (MAP4K1 (HPK1)): ≤ 1 nM
GI50 [2]: < 20 nM
Cmax [3]: 140 ng/mL
Tmax [3]: 10 h
half-life [3]: 312 min
AUC(0-t) [3]: 2100 ng·h/mL
Structure (SMILES): Cc1cc(Nc2ncc(Cl)c(Nc3ccccc3P(C)(C)=O)n2)cc2c1N1CCN(C3CCN(C)CC3)C[C@H]1CO2 [Compound 27S]

IC50 (ALK): 1 to 50 nM
IC50 (EGFR (T790M/L858R/C797S)): < 3 nM
IC50 (MAP4K1 (HPK1)): ≤ 1 nM
GI50 [2]: 20 to 100 nM
Cmax [3]: 78.4 ng/mL
Tmax [3]: 6.33 h
half-life [3]: 311 min
AUC(0-t) [3]: 687 ng·h/mL
Structure (SMILES): Cc1cc(Nc2ncc(Cl)c(Nc3ccccc3P(C)(C)=O)n2)cc2c1N1CCN(C3CCOCC3)C[C@@H]1CO2 [Compound 31R]

IC50 (EGFR (T790M/L858R/C797S)): < 3 nM
IC50 (MAP4K1 (HPK1)): ≤ 1 nM
GI50 [2]: < 20 nM
Structure (SMILES): Cc1cc(Nc2ncc(Cl)c(Nc3ccccc3P(C)(C)=O)n2)cc2c1N1CCN(C3CN(C)C3)C[C@H]1CO2 [Compound 34S]

IC50 (ALK): 1 to 50 nM
IC50 (EGFR (T790M/L858R/C797S)): 3 to 15 nM
IC50 (MAP4K1 (HPK1)): ≤ 1 nM
GI50 [1, 4]: < 20 nM
Structure (SMILES): C=CC(=O)N1CCN2c3c(C)cc(Nc4ncc(Cl)c(Nc5ccccc5P(C)(C)=O)n4)cc3OC[C@H]2C1 [Compound 26R]
